Assay results: US20080234262A1 (Wyeth, priority 2007, published 2008)

What was measured:
[1] = test system: breast line MDA468; experiment: In vitro cell culture growth assay (MTS), MDA468; format: cell-based, human; conditions: Homo sapiens, 72 h, MDA468 cells, three days after drug treatment
How it was run: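 Steps: plate cells; add inhibitors the next day; incubate 3 days; add MTS dye, which viable cells convert metabolically; measure absorbance at 490 nm; calculate percent of control growth relative to vehicle-treated cells in the same plate.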

[2] = test system: prostate line LNCap; experiment: In vitro cell culture growth assay (MTS), LNCap; format: cell-based, human; conditions: Homo sapiens, LNCaP, 72 h, LNCap cells, three days after drug treatment;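 also: viable cell density read by absorbance at 490 nm, growth expressed as percent of vehicle-treated cells on the same plate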
[3] = biological target: PI3K (Homo sapiens, UniProt P42336); experiment: Fluorescence polarization assay for PI3K; format: biochemical; conditions: PI3Kα; read-out: PI3Kα IC50;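 also: PI3K kinase reaction on PIP2 with ATP, 30-60 min, product sensed by GST-GRP with red probe in fluorescence polarization (mP), controls without enzyme and at zero time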
PI3K, sequence (P42336 whole entry): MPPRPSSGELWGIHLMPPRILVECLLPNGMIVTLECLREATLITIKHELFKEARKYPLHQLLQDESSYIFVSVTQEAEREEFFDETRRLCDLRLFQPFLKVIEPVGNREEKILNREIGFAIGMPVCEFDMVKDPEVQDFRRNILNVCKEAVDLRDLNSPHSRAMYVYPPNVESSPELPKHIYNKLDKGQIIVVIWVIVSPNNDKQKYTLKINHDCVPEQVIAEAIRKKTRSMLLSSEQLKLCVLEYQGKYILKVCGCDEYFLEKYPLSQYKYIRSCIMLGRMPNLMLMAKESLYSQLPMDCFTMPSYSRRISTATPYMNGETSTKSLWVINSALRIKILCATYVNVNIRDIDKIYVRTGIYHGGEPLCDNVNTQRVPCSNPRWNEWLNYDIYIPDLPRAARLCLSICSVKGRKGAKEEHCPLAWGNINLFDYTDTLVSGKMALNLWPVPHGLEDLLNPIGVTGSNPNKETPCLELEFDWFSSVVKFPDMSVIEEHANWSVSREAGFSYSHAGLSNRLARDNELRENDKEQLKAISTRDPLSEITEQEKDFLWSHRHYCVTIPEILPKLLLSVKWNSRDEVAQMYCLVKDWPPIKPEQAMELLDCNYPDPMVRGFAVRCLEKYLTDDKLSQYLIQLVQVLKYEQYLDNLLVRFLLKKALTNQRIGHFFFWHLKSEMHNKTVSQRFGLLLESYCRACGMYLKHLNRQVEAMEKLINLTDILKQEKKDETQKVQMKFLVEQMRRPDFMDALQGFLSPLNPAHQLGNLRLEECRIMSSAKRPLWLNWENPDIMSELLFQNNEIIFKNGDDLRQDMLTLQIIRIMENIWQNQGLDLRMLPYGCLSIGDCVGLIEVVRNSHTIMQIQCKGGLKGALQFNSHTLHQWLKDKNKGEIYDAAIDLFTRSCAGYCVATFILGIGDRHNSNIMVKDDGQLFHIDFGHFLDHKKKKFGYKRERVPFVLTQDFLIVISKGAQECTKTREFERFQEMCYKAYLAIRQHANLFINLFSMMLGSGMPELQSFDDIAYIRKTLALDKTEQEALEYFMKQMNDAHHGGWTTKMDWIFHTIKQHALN
PI3K, sequence (P27986 whole entry partner): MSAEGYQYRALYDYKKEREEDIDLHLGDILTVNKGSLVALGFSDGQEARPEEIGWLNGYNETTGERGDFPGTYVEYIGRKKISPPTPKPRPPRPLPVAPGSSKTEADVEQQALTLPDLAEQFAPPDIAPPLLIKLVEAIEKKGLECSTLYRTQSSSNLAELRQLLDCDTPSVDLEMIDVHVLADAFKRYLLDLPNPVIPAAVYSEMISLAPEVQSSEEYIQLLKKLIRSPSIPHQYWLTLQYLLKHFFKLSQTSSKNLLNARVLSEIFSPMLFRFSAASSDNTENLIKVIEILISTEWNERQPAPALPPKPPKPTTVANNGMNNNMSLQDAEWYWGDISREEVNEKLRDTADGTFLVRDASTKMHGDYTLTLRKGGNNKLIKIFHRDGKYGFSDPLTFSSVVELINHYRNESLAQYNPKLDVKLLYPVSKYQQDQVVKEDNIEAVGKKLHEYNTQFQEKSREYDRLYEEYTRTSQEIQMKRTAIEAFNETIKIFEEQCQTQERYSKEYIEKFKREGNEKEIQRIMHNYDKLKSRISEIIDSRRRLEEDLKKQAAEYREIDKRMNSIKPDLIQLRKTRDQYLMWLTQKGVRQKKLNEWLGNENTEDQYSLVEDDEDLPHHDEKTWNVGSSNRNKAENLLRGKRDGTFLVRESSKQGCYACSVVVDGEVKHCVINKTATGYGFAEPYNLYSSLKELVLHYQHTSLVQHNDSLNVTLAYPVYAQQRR

| IC50 [2] | IC50 [3] | Structure (SMILES) | IC50 [1] |
| --- | --- | --- | --- |
| 410 nM | – | Nc1ccc(-c2nc(N3CCOCC3)c3cnn(-c4ccccc4)c3n2)cn1 [Example 129, 5-(4-morpholin-4-yl-1-phenyl-1H-pyrazolo[3,4-d]pyrimidin-6-yl)pyridin-2-amine] | 1300 nM |
| 27 nM | 15 nM | O=C(Nc1ccncc1)Nc1ccc(-c2nc(N3CCOCC3)c3cnn(C4CCN(C(=O)c5cccnc5)CC4)c3n2)cc1 [Example 344, 1-(4-{4-morpholin-4-yl-1-[1-(pyridin-3-ylcarbonyl)piperidin-4-yl]-1H-pyrazolo[3,4-d]pyrimidin-6-yl}phenyl)-3-pyridin-4-ylurea] | – |
| 10000 nM | – | COC(=O)Nc1ccc(-c2nc(N3CCOCC3)c3cnn(-c4ccccc4)c3n2)cc1 [Example 101, methyl [4-(4-morpholin-4-yl-1-phenyl-1H-pyrazolo[3,4-d]pyrimidin-6-yl)phenyl]carbamate] | 22000 nM |
| 10000 nM | – | CN(C)C(=O)c1ccc(-c2nc(N3CCOCC3)c3cnn(C4CCN(Cc5ccccc5)CC4)c3n2)cc1 [Example 71] | 13000 nM |
| 35 nM | 15 nM | O=C(Nc1ccc(-c2nc(N3CCOCC3)c3cnn(C4CCN(C(=O)c5cccnc5)CC4)c3n2)cc1)Nc1cccs1 [Example 413, 1-(4-{4-morpholin-4-yl-1-[1-(pyridin-3-ylcarbonyl)piperidin-4-yl]-1H-pyrazolo[3,4-d]pyrimidin-6-yl}phenyl)-3-(2-thienyl)urea] | – |
| 27 nM | 187 nM | CCNC(=O)Nc1ccc(-c2nc(N3CCOCC3)c3cnn(C4CCN(Cc5cccnc5)CC4)c3n2)cc1 [Example 318, 1-ethyl-3-(4-{4-morpholin-4-yl-1-[1-(pyridin-3-ylmethyl)piperidin-4-yl]-1H-pyrazolo[3,4-d]pyrimidin-6-yl}phenyl)urea] | – |
| 27 nM | 70 nM | CNC(=O)Nc1ccc(-c2nc(N3CCOCC3)c3cnn(C4CCN(C(=O)c5ccccc5)CC4)c3n2)cc1 [Example 336, 1-{4-[1-(1-benzoylpiperidin-4-yl)-4-morpholin-4-yl-1H-pyrazolo[3,4-d]pyrimidin-6-yl]phenyl}-3-methylurea] | – |
| 27 nM | 35 nM | O=C(Nc1ccc(-c2nc(N3CCOCC3)c3cnn(C4CCN(C(=O)c5ccccc5)CC4)c3n2)cc1)Nc1cccnc1 [Example 379, 1-{4-[1-(1-benzoylpiperidin-4-yl)-4-morpholin-4-yl-1H-pyrazolo[3,4-d]pyrimidin-6-yl]phenyl}-3-pyridin-3-ylurea] | – |
| 27 nM | 73 nM | CNC(=O)Nc1ccc(-c2nc(N3CCOCC3)c3cnn(C4CCN(C(=O)c5cccc(C)c5)CC4)c3n2)cc1 [Example 366, 1-methyl-3-(4-{1-[1-(3-methylbenzoyl)piperidin-4-yl]-4-morpholin-4-yl-1H-pyrazolo[3,4-d]pyrimidin-6-yl}phenyl)urea] | – |
| 200 nM | 32 nM | O=C(Nc1ccc(-c2nc(N3CCOCC3)c3cnn(C4CCN(C(=O)c5cccnc5)CC4)c3n2)cc1)Nc1cccnc1 [Example 302, 1-(4-{4-morpholin-4-yl-1-[1-(pyridin-3-ylcarbonyl)piperidin-4-yl]-1H-pyrazolo[3,4-d]pyrimidin-6-yl}phenyl)-3-pyridin-3-ylurea] | – |
| 27 nM | 355 nM | CCNC(=O)Nc1ccc(-c2nc(N3CCOCC3)c3cnn(C4CCN(C(=O)c5ccccc5)CC4)c3n2)cc1 [Example 381, 1-{4-[1-(1-benzoylpiperidin-4-yl)-4-morpholin-4-yl-1H-pyrazolo[3,4-d]pyrimidin-6-yl]phenyl}-3-ethylurea] | – |
| 27 nM | 338 nM | O=C(NCCF)Nc1ccc(-c2nc(N3CCOCC3)c3cnn(C4CCN(Cc5cccnc5)CC4)c3n2)cc1 [Example 315, 1-(2-fluoroethyl)-3-(4-{4-morpholin-4-yl-1-[1-(pyridin-3-ylmethyl)piperidin-4-yl]-1H-pyrazolo[3,4-d]pyrimidin-6-yl}phenyl)urea] | – |
| 27 nM | 79 nM | CNC(=O)Nc1ccc(-c2nc(N3CCOCC3)c3cnn(C4CCN(C(=O)c5ccccc5Cl)CC4)c3n2)cc1 [Example 355, 1-(4-{1-[1-(2-chlorobenzoyl)piperidin-4-yl]-4-morpholin-4-yl-1H-pyrazolo[3,4-d]pyrimidin-6-yl}phenyl)-3-methylurea] | – |
| 27 nM | 20 nM | O=C(Nc1ccc(-c2nc(N3CCOCC3)c3cnn(C4CCN(Cc5cccnc5)CC4)c3n2)cc1)Nc1cccnc1 [Example 314, 1-(4-{4-morpholin-4-yl-1-[1-(pyridin-3-ylmethyl)piperidin-4-yl]-1H-pyrazolo[3,4-d]pyrimidin-6-yl}phenyl)-3-pyridin-3-ylurea] | – |
| 27 nM | 454 nM | O=C(NCCF)Nc1ccc(-c2nc(N3CCOCC3)c3cnn(C4CCN(C(=O)c5ccccc5)CC4)c3n2)cc1 [Example 380, 1-{4-[1-(1-benzoylpiperidin-4-yl)-4-morpholin-4-yl-1H-pyrazolo[3,4-d]pyrimidin-6-yl]phenyl}-3-(2-fluoroethyl)urea] | – |

The next lines start with the molecule.

| Structure (SMILES) | IC50 [2] | IC50 [3] | IC50 [1] |
| --- | --- | --- | --- |
| O=CNc1ccc(-c2nc(N3CCOCC3)c3cnn(C4CCN(Cc5ccccc5)CC4)c3n2)cc1 [Compound 231, N-{4-[1-(1-benzylpiperidin-4-yl)-4-morpholin-4-yl-1H-pyrazolo[3,4-d]pyrimidin-6-yl]phenyl}formamide] | 1400 nM | – | 4500 nM |
| CC(=O)Nc1cccc(-c2nc(N3CCOCC3)c3cnn(C4CCN(Cc5ccccc5)CC4)c3n2)c1 [Compound 78] | 8000 nM | – | 12000 nM |
| Nc1ccc(-c2nc(N3CCOCC3)c3cnn(C4CCN(Cc5ccccc5)CC4)c3n2)cn1 [Compound 155] | 100 nM | – | 1000 nM |
| CC(=O)N(C)c1ccc(-c2nc(N3CCOCC3)c3cnn(-c4ccccc4)c3n2)cc1 [Compound 149, N-methyl-N-[4-(4-morpholin-4-yl-1-phenyl-1H-pyrazolo[3,4-d]pyrimidin-6-yl)phenyl]acetamide] | 4500 nM | – | 40000 nM |
| Nc1ncc(-c2nc(N3CCOCC3)c3cnn(C4CCN(Cc5ccccc5)CC4)c3n2)cn1 [Compound 191] | 80 nM | – | 400 nM |
| O=CNc1ccc(-c2nc(N3CCOCC3)c3cnn(C4CCN(Cc5ccccc5)CC4)c3n2)cc1 [Compound 485, N-{4-[1-(1-benzylpiperidin-4-yl)-4-morpholin-4-yl-1H-pyrazolo[3,4-d]pyrimidin-6-yl]phenyl}formamide] | 1400 nM | – | 4500 nM |
| Oc1ccc(-c2nc(N3CCOCC3)c3cnn(C4CCN(Cc5ccccc5)CC4)c3n2)cc1 [Compound 486, 4-[1-(1-benzylpiperidin-4-yl)-4-morpholin-4-yl-1H-pyrazolo[3,4-d]pyrimidin-6-yl]phenol] | 1400 nM | – | 4000 nM |
| COC(=O)Nc1ccc(-c2nc(N3CCOCC3)c3cnn(C4CCN(C(=O)OC)CC4)c3n2)cc1 [Compound 739, methyl 4-(6-{4-[(methoxycarbonyl)amino]phenyl}-4-morpholin-4-yl-1H-pyrazolo[3,4-d]pyrimidin-1-yl)piperidine-1-carboxylate] | 400 nM | – | 1750 nM |
| COC(=O)N1CCC(n2ncc3c(N4CCOCC4)nc(-c4ccc(NC(=O)Nc5ccncc5)cc4)nc32)CC1 [Compound 738, methyl 4-(4-morpholin-4-yl-6-{4-[(pyridin-4-ylcarbamoyl)amino]phenyl}-1H-pyrazolo[3,4-d]pyrimidin-1-yl)piperidine-1-carboxylate] | < 27 nM | – | < 27 nM |
| CC(=O)Nc1ccc(-c2nc(N3CCOCC3)c3cnn(-c4ccccc4)c3n2)cc1 [Compound 108, N-[4-(4-morpholin-4-yl-1-phenyl-1H-pyrazolo[3,4-d]pyrimidin-6-yl)phenyl]acetamide] | 60000 nM | – | 60000 nM |
| c1cc2cc(-c3nc(N4CCOCC4)c4cnn([C@H]5CCCNC5)c4n3)ccc2[nH]1 [Compound 170, 6-(1H-indol-5-yl)-4-morpholin-4-yl-1-[(3S)-piperidin-3-yl]-1H-pyrazolo[3,4-d]pyrimidine] | 3300 nM | – | 12000 nM |
| Oc1ccc(-c2nc(N3CCOCC3)c3cnn(C4CCN(Cc5ccccc5)CC4)c3n2)cn1 [Compound 192] | 16000 nM | – | 40000 nM |
| O=C(c1ccccc1)N1CCC(n2ncc3c(N4CCOCC4)nc(-c4cccc(O)c4)nc32)CC1 [Compound 25, 3-[1-(1-benzoylpiperidin-4-yl)-4-morpholin-4-yl-1H-pyrazolo[3,4-d]pyrimidin-6-yl]phenol] | 140 nM | – | 700 nM |
| COC(=O)N1CCC(n2ncc3c(N4CCOCC4)nc(-c4ccc(NC(=O)Nc5ccc(CO)cc5)cc4)nc32)CC1 [Compound 912, methyl 4-{6-[4-({[4-(hydroxymethyl)phenyl]carbamoyl}amino)phenyl]-4-morpholin-4-yl-1H-pyrazolo[3,4-d]pyrimidin-1-yl}piperidine-1-carboxylate] | < 0.8 nM | – | < 0.8 nM |
| O=C(Nc1ccc(-c2nc(N3CCOCC3)c3cnn(C4CCN(Cc5cccnc5)CC4)c3n2)cc1)OCCO [Compound 924, 2-hydroxyethyl (4-{4-morpholin-4-yl-1-[1-(pyridin-3-ylmethyl)piperidin-4-yl]-1H-pyrazolo[3,4-d]pyrimidin-6-yl}phenyl)carbamate] | – | – | 110 nM |
| COC(=O)N1CCC(n2ncc3c(N4CCOCC4)nc(-c4ccc(NC(=O)NC5CC5)cc4)nc32)CC1 [Compound 734, methyl 4-(6-{4-[(cyclopropylcarbamoyl)amino]phenyl}-4-morpholin-4-yl-1H-pyrazolo[3,4-d]pyrimidin-1-yl)piperidine-1-carboxylate] | – | – | 150 nM |
| CNC(=O)Nc1ccc(-c2nc(N3CCOCC3)c3cnn(C4CCN(C(=O)OC)CC4)c3n2)cc1 [Compound 721, methyl 4-(6-{4-[(methylcarbamoyl)amino]phenyl}-4-morpholin-4-yl-1H-pyrazolo[3,4-d]pyrimidin-1-yl)piperidine-1-carboxylate] | – | – | 80 nM |
